From ChEMBL document CHEMBL5113529, “Design, Synthesis, and Biological Evaluation of Dual-Target COX-2/CYP51 Inhibitors for the Treatment of Fungal Infectious Diseases” (J Med Chem, 2022)
Activity calls are given as the source filed them. The rule behind the calls is not given here.

Assays:
[1] = species on record: Mus musculus; assay: Antiinflammatory activity in mouse infected with Candida albicans ATCC SC5314 assessed as reduction in COX-2 expression in spleen in presence of naproxen by hematoxylin staining based inverted microscopic analysis; assay type: functional
[2] = system: Candida albicans; assay: Antifungal activity against fluconazole- resistant Candida albicans 904 assessed as fungal growth inhibition measured after 72 hrs in presence of naproxen by double dilution method; assay type: functional
[3] = species on record: Mus musculus; assay: Antiinflammatory activity against mouse infected with Candida albicans ATCC SC5314 assessed as reduction in COX-2 expression in spleen in presence of naproxen by Western blot analysis; assay type: functional; design: scale not given: the % may be the effect or the level left
[4] = Toxicity in Candida albicans ATCC SC5314 infected-mouse assessed as effect on body weight at 10 ug per 20 g, ip administered on day 2, 4, 6, 8, 10 and 12 and measured on day 14 in presence of naproxen; assay type: organism-based; settings: in vivo, 336 h, dose 10 µg, time 14 day
[5] = system: Pichia kudriavzevii; assay: Antifungal activity against Candida krusei ATCC 6258 assessed as fungal growth inhibition measured after 72 hrs in presence of naproxen by double dilution method; assay type: functional
[6] = system: Cryptococcus neoformans; assay: Antifungal activity against Cryptococcus neoformans ZKCC 2209 assessed as fungal growth inhibition measured after 72 hrs in presence of naproxen by double dilution method; assay type: functional
[7] = Toxicity in mouse infected with Candida albicans assessed as AST level in plasma at 10 ug per 20 g, ip administered on day 2, 4, 6, 8, 10 and 12 and measured on day 14 in presence of naproxen (reference value: 74.9 +/- 6.7 IU/L); assay type: organism-based; settings: in vivo, 336 h, dose 10 µg, time 14 day
[8] = system: Candida albicans; assay: Antifungal activity against fluconazole- resistant Candida albicans CaR assessed as fungal growth inhibition measured after 72 hrs in presence of naproxen by double dilution method; assay type: functional
[9] = species on record: Mus musculus; assay: Immunostimulatory activity in mouse infected with Candida albicans ATCC SC5314 assessed as increase in CD8+ expression level in spleen in presence of naproxen by immunohistochemical analysis; assay type: functional, organism-based
[10] = species on record: Mus musculus; assay: Antiinflammatory activity in mouse infected with Candida albicans ATCC SC5314 assessed as reduction in MMP-9 expression in spleen in presence of naproxen by hematoxylin staining based inverted microscopic analysis; assay type: functional
[11] = system: Candida albicans; assay: Antifungal actvity against Candida albicans ATCC SC5314 infected in mouse assessed as reduction in infection at 10 ug per 20 g, ip administered on day 2, 4, 6, 8, 10 and 12 and measured on day 14 in presence of naproxen; assay type: functional, organism-based; settings: time 14.0 day

Molecule OC(Cn1cncn1)(Cn1cncn1)c1ccc(F)cc1F [FLUCONAZOLE] has an Activity [1] of 55.7 a.u, an MIC50 [2] of 2 µg/mL and an Activity [3] of 39.43%. The Activity [4] was “Non-Toxic”, the MIC50 [5] was 1 µg/mL and the MIC50 [6] was 0.25 µg/mL. The Activity [7] was 76.4 IU/L, the MIC50 [8] was 2 µg/mL and the Activity [9] was “Active”. For the same molecule, the Activity [10] was 26.05 a.u and the Activity [11] was “Active”.
